Reference: patent US20050032858A1, “Novel heterocyclic compound and anti-inflamatory agent” (priority 2001, published 2005)
Like-named read-outs stand apart in the source and are kept apart here.

Columns and labels:
[1] = system: acetic acid induced writhes; assay: Acetic acid writhing; format: in vivo, ICR-strain male mouse; conditions: i.p., 30 minutes before, vehicle control 25.2 ± 2.2
Method: This test was carried out referring to the methods of Inoue, K., Motonaga, A. and Nishimura, T. [Arzneimittel Forshung/Drug Research 41 (1): 235-239 (1991)] and of Murata, T., et al. [Nature 388: 678-682 (1997)]: 7.5 mL/kg of a 0.9% aqueous solution of acetic acid was injected intraperitoneally into an ICR-strain male mouse (6 to 8 weeks old). The number of induced writhes (characteristic behavior of contracting the abdomen, twisting the body and/or extending the hind legs in agony) was counted in a period between 10 minutes and 20 minutes after the injection. A compound of the present invention was homogeneously suspended in 2% Tween 80/saline for injection use and injected intraperitoneally 30 minutes before the induction of stimulation by the acetic acid injection. Alternatively the compound was homogeneously suspended in 2% Tween 80/distilled water and orally administered an hour before the stimulation induction by the acetic acid injection. The analgesic activity of the compound of the present invention was evaluated on the basis of how many writhes were suppressed by the administration. Indomethacin or aspirin was administered as the positive control.

[2] = system: mouse ear edema induced by TPA; format: in vivo, ICR-strain male mouse; conditions: topical, measured 6 hours after TPA
Method: This test was carried out referring to the methods of Carlson, R. P., et al. [Agents and Actions 17 (2): 197-204 (1985)] and of Chang, J., et al. [European Journal of Pharmacology 142: 197-205 (1987)]: 5 μg/20 μL of TPA (Sigma Chemical Co., Ltd.) dissolved in ethanol was applied on the anterior and posterior surfaces of the right ear of an ICR-strain male mouse (6 to 7 weeks old). The thickness of a specific area of each of the ears was measured 3 times by a digimatic micrometer 6 hours after the application. The mean values were calculated. Ear edema was determined by subtracting the mean thickness of the non-treated left ear from that of the TPA-applied right ear. A topical application activity was evaluated in a way that an acetone solution or a 0.1% Tween 80/acetone solution of a compound of the present invention was applied on the anterior and posterior surfaces of the right ear 30 minutes before and 15 minutes after the application of TPA. […] An oral administration activity was evaluated by forced oral administration of a suspension of a compound of the present invention in 2% Tween 80/distilled water an hour before applying TPA. […]

## CC(=O)Oc1ccccc1C(=O)O [Aspirin, aspirin]
[1]; 30 mg/kg
  No. of writhes (mean ± S.E.): 9.5 ± 2.0

## CC(=O)OCC(=O)[C@@]1(O)[C@H](C)C[C@H]2[C@@H]3CCC4=CC(=O)C=C[C@]4(C)[C@@]3(F)[C@@H](O)C[C@@]21C [DEX-Ac, dexamediasone-21-acetate]
[2]; 1 mg/20 μL/ear × 2
  Ear edema inhibition (%): 79.6%

## COc1ccc2c(c1)c(CC(=O)O)c(C)n2C(=O)c1ccc(Cl)cc1 [Indomethacin, indomethacin]
[2]; 3 mg/40 μL/ear × 2
  Ear edema inhibition (%): 63.5%
[1]; 3 mg/kg
  No. of writhes (mean ± S.E.): 13.8 ± 3.0
[1]; 10 mg/kg
  No. of writhes (mean ± S.E.): 4.8 ± 0.9
